Reference: ChEMBL document CHEMBL1201862, “PubChem BioAssay data set” (2004)
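Exposure lasted 48 hours, with cells grown in 96-well plates and compounds tested at five concentrations. GI50 = concentration required for 50% inhibition of growth.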 Active and inactive are the calls of the source. Cut-off read from the data, not from the text of the source: active = GI50 up to about 1.1 µM and inactive = higher.

What was measured:
Test in all cases: growth of human tumour cells (NCI), 48 h
[1] = system: Hs-578T
[2] = system: SNB-19
[3] = system: SK-MEL-28
[4] = system: OVCAR-3
[5] = system: NCI-H460
[6] = system: M14
[7] = system: NCI/ADR-RES
[8] = system: UACC-62
[9] = system: LOX IMVI
[10] = system: PC-3
[11] = system: UO-31
[12] = system: SNB-75
[13] = system: SK-MEL-5
[14] = system: K562
[15] = system: HT-29
[16] = system: U-251
[17] = system: COLO 205
[18] = system: SF-539
[19] = system: SK-MEL-2
[20] = system: RXF 393

Measured: GI50

O=C(Cc1ccccc1)NNc1nc(NNC(=O)c2ccncc2)nc(Nc2ccc([N+](=O)[O-])cc2)n1
inactive: [1] > 10 µM | [2] 6.56 µM | [3] > 10 µM | [4] > 10 µM | [5] > 10 µM | [6] > 10 µM | [7] > 10 µM | [8] 9.38 µM | [9] > 10 µM | [10] 2.7 µM | [11] > 10 µM | [12] > 10 µM | [13] > 10 µM | [14] 6.19 µM | [15] > 10 µM | [16] > 10 µM | [17] > 10 µM | [18] > 10 µM

O=c1ss/c(=N\c2ccccc2)n1-c1ccccc1
inactive: [1] 32.4 µM | [2] 62.5 µM | [19] 23.2 µM | [3] 36.9 µM | [4] 22.3 µM | [5] 81.7 µM | [6] 19 µM | [7] 28.3 µM | [8] 31.1 µM | [9] 19.3 µM | [10] 19.5 µM | [11] 17.5 µM | [12] 21.9 µM | [13] 32.4 µM | [14] 21.8 µM | [15] 38.5 µM | [16] 23.2 µM | [17] 26.1 µM | [18] 35.9 µM

C[C@H](NC(=O)C(C)(Cc1ccc(O)cn1)NC(=O)c1ccccc1)c1ccccc1 (some centres undefined)
inactive: [1] > 100 µM | [2] > 100 µM | [19] > 100 µM | [3] > 100 µM | [4] > 100 µM | [6] > 100 µM | [7] > 100 µM | [8] > 100 µM | [9] > 100 µM | [10] > 100 µM | [11] > 100 µM | [13] > 100 µM | [14] > 100 µM | [20] > 100 µM | [15] > 100 µM | [16] > 100 µM | [17] > 100 µM | [18] > 100 µM

O=C(COC(c1ccc(F)cc1)c1ccc(F)cc1)N1CCN(CCCc2ccccc2)CC1
inactive: [1] 11.1 µM | [2] 4.22 µM | [19] 3.87 µM | [3] 15.6 µM | [4] 4.29 µM | [5] 3.57 µM | [6] 4.32 µM | [7] 2.72 µM | [8] 4.26 µM | [9] 4.91 µM | [10] 3.37 µM | [11] 1.7 µM | [13] 2.65 µM | [14] 3.88 µM | [20] 3.22 µM | [15] 3.17 µM | [16] 4.16 µM | [17] 1.79 µM | [18] 5.2 µM

Cc1noc(-c2ccc(C(=O)O)[nH]2)c1Br
inactive: [1] 42.3 µM | [2] 37.4 µM | [19] 87.9 µM | [3] > 100 µM | [4] 23.4 µM | [5] > 100 µM | [6] > 100 µM | [7] 50.5 µM | [8] 64.6 µM | [10] > 100 µM | [11] 71.6 µM | [12] 26.6 µM | [13] > 100 µM | [14] > 100 µM | [20] 23.4 µM | [15] > 100 µM | [16] 34.8 µM | [17] 26.1 µM

COC(=O)c1cccc(C)c1C1CN=NC12Cc1cc(C)cc(C)c1C2=O (centres undefined)
inactive: [1] 47 µM | [2] 48.9 µM | [3] 60.4 µM | [4] 47.1 µM | [5] 30.8 µM | [6] 34.8 µM | [7] 23.1 µM | [9] > 100 µM | [11] 55.1 µM | [12] 24.9 µM | [13] 31.6 µM | [14] 26.4 µM | [20] 29.4 µM | [15] 24.7 µM | [16] 54.7 µM | [18] 56.4 µM

COc1ccc(C(=C(Cl)c2ccccc2)c2ccc(OC)cc2)cc1
inactive: [1] > 100 µM | [2] > 100 µM | [19] > 100 µM | [3] > 100 µM | [4] > 100 µM | [5] > 100 µM | [6] > 100 µM | [7] > 100 µM | [8] > 100 µM | [9] > 100 µM | [10] > 100 µM | [11] > 100 µM | [13] 79.3 µM | [14] > 100 µM | [20] > 100 µM | [15] 11.9 µM | [16] > 100 µM | [17] > 100 µM | [18] > 100 µM

CC(CC(N)C(=O)O)C(=O)O (centres undefined)
inactive: [1] > 100 µM | [2] > 100 µM | [19] > 100 µM | [3] > 100 µM | [4] > 100 µM | [5] > 100 µM | [6] > 100 µM | [7] > 100 µM | [8] > 100 µM | [9] > 100 µM | [10] > 100 µM | [11] > 100 µM | [13] > 100 µM | [14] > 100 µM | [20] > 100 µM | [15] > 100 µM | [16] > 100 µM
